Results as given in patent publication US4753932A, “Novel 10-substituted steroids” (Roussel Uclaf, priority 1985, dated 1988).
Where two headings read alike, the source gives them in different places.

Columns and labels:
[1] = molecular target: T1, Progestogen receptor of rabbit uterus (Oryctolagus cuniculus, UniProt P06186); test: Progestogen receptor of rabbit uterus: relative liaison affinity (RLA), displacement of tritiated Product R; assay type: binding; conditions: for relative liaison affinity (RLA), Progestogen receptor: vs tritiated Product R; for activity for the progestogen receptor (in words): conclusion
T1 construct: Their uterus were removed, weighed and homogenized at 0° C; from tissue; host or cells: 105,000 g supernatant (cytosol) of uterus from estradiol-treated impuberal rabbits
T1 sequence (P06186 1-930): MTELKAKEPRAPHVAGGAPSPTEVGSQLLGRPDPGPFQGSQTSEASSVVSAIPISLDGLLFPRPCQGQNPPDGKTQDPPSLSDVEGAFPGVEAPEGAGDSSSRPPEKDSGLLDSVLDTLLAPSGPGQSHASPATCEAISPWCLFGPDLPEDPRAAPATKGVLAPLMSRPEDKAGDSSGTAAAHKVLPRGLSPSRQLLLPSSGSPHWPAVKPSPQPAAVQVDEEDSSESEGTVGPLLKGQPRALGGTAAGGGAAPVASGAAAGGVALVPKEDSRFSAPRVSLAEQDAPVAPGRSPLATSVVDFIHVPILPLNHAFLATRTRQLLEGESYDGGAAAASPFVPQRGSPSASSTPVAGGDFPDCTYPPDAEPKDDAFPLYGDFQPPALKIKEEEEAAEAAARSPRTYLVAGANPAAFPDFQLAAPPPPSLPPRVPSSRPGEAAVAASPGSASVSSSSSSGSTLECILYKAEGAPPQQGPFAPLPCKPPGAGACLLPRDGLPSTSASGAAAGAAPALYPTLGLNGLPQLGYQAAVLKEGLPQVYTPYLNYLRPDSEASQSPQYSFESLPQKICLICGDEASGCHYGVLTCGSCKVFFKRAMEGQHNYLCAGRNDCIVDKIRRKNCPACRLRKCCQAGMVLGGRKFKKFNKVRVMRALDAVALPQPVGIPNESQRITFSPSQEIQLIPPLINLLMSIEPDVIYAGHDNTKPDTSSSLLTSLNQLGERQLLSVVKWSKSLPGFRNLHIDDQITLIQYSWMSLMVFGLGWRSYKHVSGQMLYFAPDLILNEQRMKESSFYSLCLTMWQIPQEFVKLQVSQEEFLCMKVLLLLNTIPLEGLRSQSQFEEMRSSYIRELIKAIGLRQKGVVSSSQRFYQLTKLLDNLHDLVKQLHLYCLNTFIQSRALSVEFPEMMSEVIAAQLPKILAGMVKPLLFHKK
Protocol: (1) Study of the activity on the hormone receptors
Progestogen receptor of rabbit uterus
Impuberal rabbits of about 1 kg received a cutaneous application of […] of estradiol and 5 days after this treatment, the animals were killed. Their uterus were removed, weighed and homogenized at 0° C. using a Potter teflon-glass in a TS buffered solution (Tris 10 mM, saccharose 0.25M, HCl pH 7.4) (1 g of tissue for 50 ml of TS). The homogenate was then ultracentrifuged at 105,000 g for 90 minutes at 0° C. Aliquots of the supernatant so obtained were incubated at 0° C. for a time t, with a constant concentration (T) of Product R tritiated (17,21-dimethyl-19-nor-Δ^4,9 -pregnadiene-3,20-dione) in the presence of increasing concentrations (0-2,500 10^-9 M) either of R cold, or of cold progesterone, or of the cold product under test. The concentration of tritiated R bonded (B) was then measured in each incubate by the technique of adsorption to dextran-carbon.
(§1) Calculation of the relative liaison affinity
(§2) The calculation of the relative liaison affinity (RLA) was identical for all the receptors. The two following curves were traced: the percentage of tritiated hormone bonded B as a function of the logarithm of the concentration of the cold reference hormone, and B/T as a function of the logarithm of the concentration of the cold product under test. The straight line was determined of the equation [formula] (B/T) max=percentage of tritiated hormone bonded for an incubation of this tritiated hormone at the concentration (T).
(§3) (B/T) min.=percentage of tritiated hormone bonded for an incubation of the tritiated hormone at the concentration (T) in the presence of a great excess of cold hormone (2500.10^-9 M).
(§4) The intersections of the straight line I50 and of the curves enabled the concentrations of the cold reference hormone (CH) and the cold product under test (CX) to be evaluated which inhibit by 50% the bonding of the tritiated hormone on the receptor.
The relative liaison affinity (RLA) of the product under test was determined by the equation [formula] and the following results were obtained: […]

[2] = test system: Thymocytes of suprarenalectomized rats; test: Anti-glucocorticoid activity: inhibition of the effect of dexamethasone on incorporation of tritiated uridine in thymocytes; assay type: cell-based; conditions: for inhibition at 1 µM / inhibition at 0.1 µM / inhibition at 0.01 µM: Thymocyte, read-out: % inhibition of the effect of Dexamethasone
Protocol: (II). Anti-glucocorticoid activity
The technique utilized envolved from the method described by Dausse et al in "Molecular Pharmacology", Vol. 13, p. 948-955 (1977) ("the relationship between glucocorticoid structure and effects upon Thymocytes") for the thymocytes of mice. Thymocytes of suprarenalectomized rats were incubated at 37° C. for 3 hours in a nutritive medium containing 5.10^-8 M of dexamethasone in the presence or not of a product under study at different concentrations. Tritiated uridine was added and the incubation was continued for one hour. The incubates were cooled, then treated with a 5% solution of trichloroacetic acid, filtered on Whatman paper GF/A, and washed three times with a 5% solutioh of trichloroacetic acid. The radio-activity retained by the filter was determined.

[3] = molecular target: T2, Glucocorticoid receptor of rat thymus (Rattus norvegicus, UniProt P06536); test: Glucocorticoid receptor of rat thymus: relative liaison affinity (RLA), displacement of tritiated dexamethasone; assay type: binding, Male Sprague-Dawley EOPS rats; conditions: for relative liaison affinity (RLA), Glucocorticoid receptor: vs tritiated dexamethasone; for affinity for the glucocorticoid receptors (in words): conclusion
T2 construct: Their thymus was removed and homogenized at 0° C; from tissue; host or cells: 105,000 g supernatant (cytosol) of thymus from adrenalectomized male Sprague-Dawley rats
T2 sequence (P06536 1-795): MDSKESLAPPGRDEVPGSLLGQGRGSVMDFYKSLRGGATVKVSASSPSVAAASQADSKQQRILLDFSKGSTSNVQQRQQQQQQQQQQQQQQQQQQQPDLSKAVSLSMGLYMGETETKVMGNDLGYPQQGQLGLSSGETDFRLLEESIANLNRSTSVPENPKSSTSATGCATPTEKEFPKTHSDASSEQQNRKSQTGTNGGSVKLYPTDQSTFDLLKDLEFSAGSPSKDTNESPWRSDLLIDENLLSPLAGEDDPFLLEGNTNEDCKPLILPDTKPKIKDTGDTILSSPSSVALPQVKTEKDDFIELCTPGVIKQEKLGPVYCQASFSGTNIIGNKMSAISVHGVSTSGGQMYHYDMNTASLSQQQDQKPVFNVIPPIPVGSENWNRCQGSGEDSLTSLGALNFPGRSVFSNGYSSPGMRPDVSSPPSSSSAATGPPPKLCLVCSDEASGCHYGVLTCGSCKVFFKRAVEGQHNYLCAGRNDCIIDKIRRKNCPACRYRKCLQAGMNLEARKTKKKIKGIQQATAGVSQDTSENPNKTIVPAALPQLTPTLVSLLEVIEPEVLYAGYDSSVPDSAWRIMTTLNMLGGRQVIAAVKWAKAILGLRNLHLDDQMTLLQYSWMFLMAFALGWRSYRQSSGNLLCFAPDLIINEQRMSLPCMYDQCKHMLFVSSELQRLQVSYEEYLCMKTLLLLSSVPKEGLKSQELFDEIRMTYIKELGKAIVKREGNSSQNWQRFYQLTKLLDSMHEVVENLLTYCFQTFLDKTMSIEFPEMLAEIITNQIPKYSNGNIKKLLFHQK
Protocol: Glucocorticoid receptor of rat thymus:
Their thymus was removed and homogenized at 0° C. in a buffer Tris 10 mM saccharose 0.25M, dithiotreitol 2 mM, HCl pH 7.4, using a Potter polytetrafluoroethylene-glass (1 g of tissue for 10 ml of TS). The homogenate was then ultracentrifuged at 105,000 g for 90 minutes at 0° C. Aliquots of the supernatant so obtained were incubated at 0° C. for a time (t) with a constant concentration (T) of tritiated dexamethasone in the presence of increasing concentrations (0-2,500.10^-9 M) either of cold dexamethasone, or of the cold product under test. The concentration of tritiated dexamethasone bonded (B) was then measured in each incubate by the technique of adsorption to dextran-carbon.
as §1, §2, §3, §4

[4] = 5.10^-8 M dexamethasone, rat thymocytes
[5] = product at 10^-6 M, 5.10^-8 M dexamethasone, rat thymocytes, 37° C., 3 hours
[6] = product at 10^-7 M, 5.10^-8 M dexamethasone, rat thymocytes, 37° C., 3 hours
[7] = product at 10^-8 M, 5.10^-8 M dexamethasone, rat thymocytes, 37° C., 3 hours

CC#C[C@]1(O)CC[C@H]2[C@@H]3CCC4=CC(=O)CC[C@]4(Cc4ccccc4)C3=CC[C@@]21C [Example 1, 10β-benzyl-17α-(prop-1-ynyl)-Δ^4,9(11) -estradien-17β-ol-3-one]
relative liaison affinity (RLA), Progestogen receptor ([1]; Incubation time 2 H at 0° C.): 0.1
relative liaison affinity (RLA), Progestogen receptor ([1]; Incubation time 24 H at 0° C.): 0.1
activity for the progestogen receptor (in words) [1]: negligible activity
effect on dexamethasone-induced diminution in the incorporation of tritiated uridine (in words) [2, 4]: oppose this effect
inhibition at 1 µM [2, 5]: 80%
inhibition at 0.1 µM [2, 6]: 55%
inhibition at 0.01 µM [2, 7]: 20%
relative liaison affinity (RLA), Glucocorticoid receptor ([3]; Incubation time 4 H at 0° C.): 160
relative liaison affinity (RLA), Glucocorticoid receptor ([3]; Incubation time 24 H at 0° C.): 57
affinity for the glucocorticoid receptors (in words) [3]: very marked affinity

CC#C[C@]1(O)CC[C@H]2[C@@H]3CCC4=CC(=O)CC[C@]4(Cc4ccc(C)cc4)C3=CC[C@@]21C [Example 4, 10β-[4-methyl-benzyl]-17α-(prop-1-ynyl)-Δ^4,9(11) -estradiene-17β-ol-3-one]
activity for the progestogen receptor (in words) [1]: negligible activity
effect on dexamethasone-induced diminution in the incorporation of tritiated uridine (in words) [2, 4]: oppose this effect
inhibition at 0.01 µM ([2]; Rattus norvegicus, 3 h): 10%
inhibition at 0.1 µM ([2]; Rattus norvegicus, 3 h): 30%
inhibition at 1 µM ([2]; Rattus norvegicus, 3 h): 83%

C=C(C)C[C@]12CCC(=O)C=C1CC[C@@H]1C2=CC[C@@]2(C)[C@H]1CC[C@@]2(O)C#CC [Example 7, 10β-(2-methyl-prop-2-en-1-yl)-17α-(prop-1-ynyl)-Δ^4,9(11) -estradien 17β-ol-3-one]
relative liaison affinity (RLA), Progestogen receptor ([1]; Incubation time 2 H at 0° C.): 0.4
relative liaison affinity (RLA), Progestogen receptor ([1]; Incubation time 24 H at 0° C.): 0.1
activity for the progestogen receptor (in words) [1]: negligible activity
effect on dexamethasone-induced diminution in the incorporation of tritiated uridine (in words) [2, 4]: oppose this effect
inhibition at 1 µM [2, 5]: 65%
inhibition at 0.1 µM [2, 6]: 16%
inhibition at 0.01 µM [2, 7]: 10%
relative liaison affinity (RLA), Glucocorticoid receptor ([3]; Incubation time 4 H at 0° C.): 226
relative liaison affinity (RLA), Glucocorticoid receptor ([3]; Incubation time 24 H at 0° C.): 112
affinity for the glucocorticoid receptors (in words) [3]: very marked affinity

CC#C[C@]1(O)CC[C@H]2[C@@H]3CCC4=CC(=O)CC[C@]4(Sc4ccc(OC)cc4)C3=CC[C@@]21C [Example 10, 10β-[(4-methoxyphenyl)-thio]-17α-(prop-1-ynyl)-Δ^4,9(11) -estradien-17β-ol-3-one]
relative liaison affinity (RLA), Progestogen receptor ([1]; Incubation time 2 H at 0° C.): 0.9
relative liaison affinity (RLA), Progestogen receptor ([1]; Incubation time 24 H at 0° C.): 0.5
activity for the progestogen receptor (in words) [1]: negligible activity
effect on dexamethasone-induced diminution in the incorporation of tritiated uridine (in words) [2, 4]: oppose this effect
relative liaison affinity (RLA), Glucocorticoid receptor ([3]; Incubation time 4 H at 0° C.): 218
relative liaison affinity (RLA), Glucocorticoid receptor ([3]; Incubation time 24 H at 0° C.): 152
affinity for the glucocorticoid receptors (in words) [3]: very marked affinity

CC#C[C@]1(O)CC[C@H]2[C@@H]3CCC4=CC(=O)CC[C@]4(Cc4ccccc4F)C3=CC[C@@]21C [Example 12, 10β-[2-fluorobenzyl]-17α-(prop-1-ynyl)-Δ^4,9(11) -estradien-17β-ol-3-one]
relative liaison affinity (RLA), Progestogen receptor ([1]; Incubation time 2 H at 0° C.): 0.1
relative liaison affinity (RLA), Progestogen receptor ([1]; Incubation time 24 H at 0° C.): 0.1
activity for the progestogen receptor (in words) [1]: negligible activity
effect on dexamethasone-induced diminution in the incorporation of tritiated uridine (in words) [2, 4]: oppose this effect
inhibition at 1 µM [2, 5]: 67%
inhibition at 0.1 µM [2, 6]: 12%
inhibition at 0.01 µM [2, 7]: 6%
relative liaison affinity (RLA), Glucocorticoid receptor ([3]; Incubation time 4 H at 0° C.): 136
relative liaison affinity (RLA), Glucocorticoid receptor ([3]; Incubation time 24 H at 0° C.): 45
affinity for the glucocorticoid receptors (in words) [3]: very marked affinity

C[C@@H]1C[C@H]2[C@@H]3CCC4=CC(=O)C=C[C@]4(C)[C@@]3(F)[C@@H](O)C[C@]2(C)[C@@]1(O)C(=O)CO [dexamethasone, reference compound]
incorporation of tritiated uridine (in words) ([2]; rat thymocytes, dexamethasone): diminution in the incorporation of tritiated uridine
